# Columns and labels:
# Experiment in all cases: relative viability (nuclei count vs DMSO), 5 days (fraction); higher = more cells survive
# [1] = tested on: EPLC-272H
# Outline: (§1)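 Five library-drug doses in √10 steps were combined with a fixed anchor-drug dose, or a single drug was given alone, by pin tool to lung cancer cell lines in 1536-well plates the day after seeding. Nuclei were stained and counted after 5 days. Relative viability is the nuclei count in treated wells over that in vehicle wells, taken as the median of duplicate plates.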
# [2] = tested on: LC-2-ad
# Outline: as §1
# [3] = tested on: NCI-H650
# Outline: as §1
# [4] = tested on: NCI-H2347
# Outline: as §1
# [5] = tested on: NCI-H2085
# Outline: as §1
# [6] = tested on: PC-14
# Outline: as §1
# [7] = tested on: ABC-1
# Outline: as §1
# [8] = tested on: NCI-H2023
# Outline: as §1
# [9] = tested on: LU99A
# Outline: as §1
# [10] = tested on: UMC-11
# Outline: as §1
# [11] = tested on: NCI-H2342
# Outline: as §1
# [12] = tested on: NCI-H1355
# Outline: as §1
# [13] = tested on: NCI-H2126
# Outline: as §1
# [14] = tested on: NCI-H358
# Outline: as §1
# [15] = tested on: HARA
# Outline: as §1
# [16] = tested on: SW 1573
# Outline: as §1
# [17] = tested on: NCI-H838
# Outline: as §1
# [18] = tested on: NCI-H1651
# Outline: as §1
# [19] = tested on: HCC-15
# Outline: as §1
# [20] = tested on: COR-L23
# Outline: as §1
# [21] = tested on: NCI-H1993
# Outline: as §1
# [22] = tested on: HCC-78
# Outline: as §1
# [23] = tested on: NCI-H1915
# Outline: as §1
smiles,measurement,setting,value
NC(=O)Nc1cc(-c2cccc(F)c2)sc1C(=O)N[C@H]1CCCNC1 [AZD7762] + COc1cc2c(Oc3ccc(NC(=O)C4(C(=O)Nc5ccc(F)cc5)CC4)cc3F)ccnc2cc1OCCCN1CCOCC1 [Foretinib] (partner 0.25 µM),relative viability,[1]; first compound 0.01 µM,0.676
same,relative viability,[1]; first compound 0.03162 µM,0.654
same,relative viability,[1]; first compound 0.1 µM,0.654
same,relative viability,[1]; first compound 0.3162 µM,0.615
same,relative viability,[1]; first compound 1 µM,0.256
same,relative viability,[2]; first compound 0.01 µM,1.15
same,relative viability,[2]; first compound 0.03162 µM,1.09
same,relative viability,[2]; first compound 0.1 µM,1.07
same,relative viability,[2]; first compound 0.3162 µM,1.18
same,relative viability,[2]; first compound 1 µM,0.756
same,relative viability,[3]; first compound 0.01 µM,1.13
same,relative viability,[3]; first compound 0.03162 µM,0.991
same,relative viability,[3]; first compound 0.1 µM,1.03
same,relative viability,[3]; first compound 0.3162 µM,1.03
same,relative viability,[3]; first compound 1 µM,1.05
same,relative viability,[4]; first compound 0.01 µM,1.55
same,relative viability,[4]; first compound 0.03162 µM,0.791
same,relative viability,[4]; first compound 0.1 µM,0.767
same,relative viability,[4]; first compound 0.3162 µM,0.616
same,relative viability,[4]; first compound 1 µM,0.51
same,relative viability,[5]; first compound 0.01 µM,0.946
same,relative viability,[5]; first compound 0.03162 µM,0.938
same,relative viability,[5]; first compound 0.1 µM,0.865
same,relative viability,[5]; first compound 0.3162 µM,1.21
same,relative viability,[5]; first compound 1 µM,0.697
same,relative viability,[6]; first compound 0.01 µM,1.04
same,relative viability,[6]; first compound 0.03162 µM,0.927
same,relative viability,[6]; first compound 0.1 µM,0.973
same,relative viability,[6]; first compound 0.3162 µM,0.885
same,relative viability,[6]; first compound 1 µM,0.361
same,relative viability,[7]; first compound 0.01 µM,1.22
same,relative viability,[7]; first compound 0.03162 µM,1.23
same,relative viability,[7]; first compound 0.1 µM,0.851
same,relative viability,[7]; first compound 0.3162 µM,0.402
same,relative viability,[7]; first compound 1 µM,0.212
same,relative viability,[8]; first compound 0.01 µM,0.788
same,relative viability,[8]; first compound 0.03162 µM,0.529
same,relative viability,[8]; first compound 0.1 µM,0.652
same,relative viability,[8]; first compound 0.3162 µM,0.393
same,relative viability,[8]; first compound 1 µM,0.098
same,relative viability,[9]; first compound 0.01 µM,0.798
same,relative viability,[9]; first compound 0.03162 µM,0.828
same,relative viability,[9]; first compound 0.1 µM,0.791
same,relative viability,[9]; first compound 0.3162 µM,0.822
same,relative viability,[9]; first compound 1 µM,0.537
same,relative viability,[10]; first compound 0.01 µM,1.04
same,relative viability,[10]; first compound 0.03162 µM,1.1
same,relative viability,[10]; first compound 0.1 µM,1.11
same,relative viability,[10]; first compound 0.3162 µM,0.765
same,relative viability,[10]; first compound 1 µM,0.384
same,relative viability,[11]; first compound 0.01 µM,0.992
same,relative viability,[11]; first compound 0.03162 µM,1.14
same,relative viability,[11]; first compound 0.1 µM,1.09
same,relative viability,[11]; first compound 0.3162 µM,1.1
same,relative viability,[11]; first compound 1 µM,1.25
same,relative viability,[12]; first compound 0.01 µM,0.964
same,relative viability,[12]; first compound 0.03162 µM,0.975
same,relative viability,[12]; first compound 0.1 µM,0.967
same,relative viability,[12]; first compound 0.3162 µM,1.02
same,relative viability,[12]; first compound 1 µM,0.995
same,relative viability,[13]; first compound 0.01 µM,1.23
same,relative viability,[13]; first compound 0.03162 µM,1.19
same,relative viability,[13]; first compound 0.1 µM,1.2
same,relative viability,[13]; first compound 0.3162 µM,1.28
same,relative viability,[13]; first compound 1 µM,1.26
same,relative viability,[14]; first compound 0.01 µM,0.532
same,relative viability,[14]; first compound 0.03162 µM,0.76
same,relative viability,[14]; first compound 0.1 µM,0.628
same,relative viability,[14]; first compound 0.3162 µM,0.647
same,relative viability,[14]; first compound 1 µM,0.378
same,relative viability,[15]; first compound 0.01 µM,0.888
same,relative viability,[15]; first compound 0.03162 µM,0.932
same,relative viability,[15]; first compound 0.1 µM,0.91
same,relative viability,[15]; first compound 0.3162 µM,0.866
same,relative viability,[15]; first compound 1 µM,0.197
same,relative viability,[16]; first compound 0.01 µM,0.845
same,relative viability,[16]; first compound 0.03162 µM,0.866
same,relative viability,[16]; first compound 0.1 µM,0.99
same,relative viability,[16]; first compound 0.3162 µM,1.12
same,relative viability,[16]; first compound 1 µM,1.02
same,relative viability,[17]; first compound 0.01 µM,1.1
same,relative viability,[17]; first compound 0.03162 µM,1.07
same,relative viability,[17]; first compound 0.1 µM,1.04
same,relative viability,[17]; first compound 0.3162 µM,0.992
same,relative viability,[17]; first compound 1 µM,0.553
same,relative viability,[18]; first compound 0.01 µM,0.912
same,relative viability,[18]; first compound 0.03162 µM,0.785
same,relative viability,[18]; first compound 0.1 µM,0.693
same,relative viability,[18]; first compound 0.3162 µM,0.573
same,relative viability,[18]; first compound 1 µM,0.186
same,relative viability,[19]; first compound 0.01 µM,1.06
same,relative viability,[19]; first compound 0.03162 µM,0.995
same,relative viability,[19]; first compound 0.1 µM,0.993
same,relative viability,[19]; first compound 0.3162 µM,1.06
same,relative viability,[19]; first compound 1 µM,0.983
same,relative viability,[20]; first compound 0.01 µM,1.18
same,relative viability,[20]; first compound 0.03162 µM,0.955
same,relative viability,[20]; first compound 0.1 µM,1.08
same,relative viability,[20]; first compound 0.3162 µM,0.842
same,relative viability,[20]; first compound 1 µM,0.292
same,relative viability,[21]; first compound 0.01 µM,0.772
same,relative viability,[21]; first compound 0.03162 µM,0.878
same,relative viability,[21]; first compound 0.1 µM,0.801
same,relative viability,[21]; first compound 0.3162 µM,0.821
same,relative viability,[21]; first compound 1 µM,0.708
same,relative viability,[22]; first compound 0.01 µM,0.619
same,relative viability,[22]; first compound 0.03162 µM,0.611
same,relative viability,[22]; first compound 0.1 µM,0.589
same,relative viability,[22]; first compound 0.3162 µM,0.682
same,relative viability,[22]; first compound 1 µM,0.578
same,relative viability,[23]; first compound 0.01 µM,1.18
same,relative viability,[23]; first compound 0.03162 µM,1.08
same,relative viability,[23]; first compound 0.1 µM,1.09
same,relative viability,[23]; first compound 0.3162 µM,1.04
same,relative viability,[23]; first compound 1 µM,0.981
